Laboratory results from patent US9067966B2, “Lupeol-type triterpene derivatives as antivirals” (priority 2009, dated 2015).

Key:
HIV-1 strain NL4-3 = assay: Anti-HIV-1 luciferase indicator assay in MT2 cells, NL4-3; assay type: cell-based; conditions: viral strain NL4-3; for IC50: Human immunodeficiency virus 1, NL43, MT2, MT2 cells, read-out: IC50; for TI / Safety Index (CC50/IC50): MT2 cells
Experimental: (§1) Compound was dissolved in DMSO to make 30 mM stock. Then the 30 mM stock is further diluted to 4 mM using DMSO. The 4 mM stock was used as the top concentration to carry out an 11-point, 3-fold dilution scheme using DMSO in a 96-well plate to make the compound dose plate. Compounds in the dose plate were transferred to a new 96-well plate (working plate) containing PBS with 0.05% pluronic acid. From this working plate, the compound solution was transferred to the 384-well assay plates.
(§2) Control compounds used in compound control wells were prepared and added to assay plates individually.
(§3) MT2 cells were mixed with HIV-1 strain NL4-3 (or IIIB, or CNHN24) and the cell/virus mixture was added to the aforementioned antivirus assay plates. After incubation in a 37° C., 5% CO2 incubator, the supernatant from the assay plate was transferred to a new 384-well plate containing the indicator cells with a fire fly luciferase gene under HIV-1 LTR control. The expression level of luciferase was related to HIV-1 infectivity and was measured by Bright-Glo kit (Promega).
(§4) Therapeutic index (TI) was determined by taking ratio of CC50/IC50

HIV-1 strain IIIB = assay: Anti-HIV-1 luciferase indicator assay in MT2 cells, IIIB; assay type: cell-based; conditions: viral strain II B; for IC50: Human immunodeficiency virus 1, IIIB, MT2, MT2 cells, read-out: IC50; for TI / Safety Index (CC50/IC50): MT2 cells
Experimental: as §1, §2, §3, §4

in vitro = assay type: cell-based; conditions: human, CC50
Experimental: as §1
For cytotoxicity assay the same amount of MT2 cells as in antivirus assay but without HIV-1 virus were added to the cytotoxicity plates. The cytotoxicity was measured by Cell Titer-Glo cell viability assay (Promega).

[1] = Cytotoxicity on Molt-4 cells (MTT); assay type: cell-based; conditions: human, read-out: Percent Viability; for viability at 24 h, 0.1 µM: concentration 0.1 μM; for viability at 24 h, 1 µM: concentration 1 μM; for viability at 24 h, 10 µM: concentration 10 μM; for viability at 24 h, 100 µM: concentration 100 μM
Experimental: 10 mM stock solution of the test compound was made in DMSO and stored at −20° C. for further use. During the day of the experiment working stocks were made by serial dilution with DMSO. The final concentration of DMSO in the test media is 1%.
MTT assay was performed in a 96 well format using Molt-4 cell line (Human acute T lymphoblastic leukemia)—a suspension culture maintained in RPMI with 10% FBS media.
Approximately 0.03 million cells are seeded/well and the plate was incubated for 16 hours. Following incubation, cells are treated with a test compound at a defined concentration in triplicates and incubation was continued for another 24 hours. At the end of the incubation, MTT reagent was added (10 μl, 5 mg/ml stock) to the plate and continued incubation for additional 4 hours. Reaction was terminated by addition of 200 μl 0.1N acidic propanol. The colour developed was measured by a plate reader using 590 nm filters. The percent viability was calculated by comparing mean absorbance value of sample with the control (Vehicle alone).

HIV-193IN 101 = assay: P24 assay for anti-HIV activity in Sup-T1 cells; assay type: cell-based, HIV-1; conditions: Human immunodeficiency virus 1, SUP-T1, read-out: Percent Inhibition of HIV-193IN 101 Replication in Sup-T1 Cells (table title: Percent Viability)
Experimental: Viral p24 is measured after about 72 hours of post infection in presence of drugs using an ABL p24 ELISA kit. 0.5 million cells/well are taken into the 24 well plates and added increasing concentrations of drugs. 1 ng/ml of HIV-1 virus was added to each well and incubated for overnight at 37° C. (37° C. and 5% CO2). After about 16 hours incubation the media was changed and fresh media was added and cultured for about 72 hours. P24 was quantified at the 4th day of post-infection using an ABL kit according to manufacturer's instructions.
Percent Inhibition of HIV-193IN 101 Replication in Sup-T1 Cells

[2] = Cytotoxicity on Sup-T1 cells (MTT); assay type: cell-based; conditions: human, read-out: Percent Viability; for viability at 0.001 µM: concentration 1 nM; for viability at 0.1 µM: concentration 100 nM; for viability at 1 µM: concentration 1 μM; for viability at 100 µM: concentration 100 μM; for viability at 1 mM: concentration 1 mM
Experimental: Reduction of 3-(4,5-dimethylthiozol-2-yl)-2,5-diphenyltetrazolium bromide (MTT, sigma) is chosen as an optimal end point of cell viability measurement (Mosmann, 1983; Cole, 1986; Alley et al., 1988) […] (0.2×10^6 cells per well) are seeded in 96-well plates. Increasing concentrations of compound are added to the cells and incubated at 37° C. for about 14 hours in a CO2 Incubator with 5% CO2. The media is replaced with a fresh growth medium along with 20 μL of 5 mg/ml 3-(4,5-dimethylthiazol-2-yl)-2,5-diphenyltetrazolium bromide (MTT, Sigma). After incubation for about 4 hours in a humidified atmosphere, the media is removed and 200 μL of 0.1 N acidic isopropyl alcohol is added to the wells to dissolve the MTT-formazan crystals. The absorbance is recorded at 570 nm, immediately after the development of purple colour. Each experiment is conducted in triplicate and the data are represented as average, with standard deviation. Percent viability of the cells is computed with reference to the absorbance of reduced MTT in the experiments conducted in absence of any compound.

HIV-1 strain CNHN24 = assay: Anti-HIV-1 luciferase indicator assay in MT2 cells, CNHN24; assay type: cell-based; conditions: viral strain CNHN24; for IC50: Human immunodeficiency virus 1, MT2, MT2 cells, read-out: IC50; for TI / Safety Index (CC50/IC50): MT2 cells
Experimental: as §1, §2, §3, §4

HIV-1 strain 92-HT599 = assay: Anti HIV-1 p24 assay, strain 92-HT599 in MT2 cells; assay type: cell-based; conditions: Human immunodeficiency virus 1, MT2 cells, read-out: Percent inhibition
Experimental: MT2 cells were infected with the HIV-1 strain 92-HT599 (10TCID50/30000 cells). The infected cells are plated at the concentration of 30000 cells per well in a 96 well assay micro plate. A test compound was added to the micro plate in a defined format with the final concentration of DMSO (vehicle) being not more than 1%. Incubation was carried out in a CO2 incubator for 96 hours for viral infection. At the end of incubation period an aliquot from each well was taken for p24 estimation. The quantitation of p24 is an index for antiviral activity of the compound. Percent inhibition was calculated with reference to control values (vehicle).
P24 estimation was carried out using an Advance Biosciences kit as per the procedure as detailed by supplier.
[…] was made by dissolving test compound in DMSO. Subsequent dilutions were made with DMSO to make necessary working stocks (100×).

In the case of `C=C(C)[C@@H]1CC[C@]2(C(=O)N[C@@H]3C[C@H](C(=O)OCc4ccccc4)C3(C)C)CC[C@]3(C)[C@H](CC[C@@H]4[C@@]5(C)CC[C@H](OC(=O)CC(C)(C)C(=O)O)C(C)(C)[C@@H]5CC[C@]43C)[C@@H]12`, the melting point is reported as 64.7 to 100.4 °C.
In the case of `C=C(C)[C@@H]1CC[C@]2(C(=O)O)CC[C@]3(C)[C@H](CC[C@@H]4[C@@]5(C)CC[C@H](OC(=O)[C@@H]6C[C@H](C(=O)O)C6(C)C)C(C)(C)[C@@H]5CC[C@]43C)[C@@H]12` [Example 4, (1R,3aS,5aR,5bR,7aR,9S,11aR,11bR,13aR,13bR)-9-((1R,3S)-3-carboxy-2,2-dimethylcyclobutanecarbonyloxy)-5a,5b,8,8,11a-pentamethyl-1-(prop-1-en-2-yl)icosahydro-1H-cyclopenta[a]chrysene-3a-carboxylic acid], the IC50 (HIV-1 strain NL4-3) is reported as 201 nM, the “TI / Safety Index (CC50/IC50)” value (HIV-1 strain NL4-3) is reported as 91 and the IC50 (HIV-1 strain IIIB) is reported as 364 nM. For the same compound, the “TI / Safety Index (CC50/IC50)” value (HIV-1 strain IIIB) was 54, the CC50 (in vitro) was 20000 nM and the viability at 24 h, 0.1 µM [1] was 101%. It also gave a viability at 24 h, 1 µM [1] of 98.7%, a viability at 24 h, 10 µM [1] of 102% and a viability at 24 h, 100 µM [1] of 7.03%. For the same compound, the inhibition at 0.0001 µM (HIV-193IN 101) was 13%, the inhibition at 0.001 µM (HIV-193IN 101) was 17.7% and the inhibition at 0.1 µM (HIV-193IN 101) was 23.5%. It also gave an inhibition at 1 µM (HIV-193IN 101) of 42.4%, an inhibition at 100 µM (HIV-193IN 101) of 87.5% and a viability at 0.001 µM [2] of 85.8%. For the same compound, the viability at 0.1 µM [2] was 86.8%, the viability at 1 µM [2] was 85.2% and the viability at 100 µM [2] was 39%. The viability at 1 mM [2] was 26.2%, the IC50 (HIV-1 strain CNHN24) was 218 nM and the “TI / Safety Index (CC50/IC50)” value (HIV-1 strain CNHN24) was 91.
For `C=C(C)[C@@H]1CC[C@]2(C(=O)N[C@H]3C[C@@H](C(=O)N4CCCCC4)C3(C)C)CC[C@]3(C)[C@H](CC[C@@H]4[C@@]5(C)CC[C@H](OC(=O)[C@@H]6C[C@H](C(=O)O)C6(C)C)C(C)(C)[C@@H]5CC[C@]43C)[C@@H]12`, the melting point was 257.7 to 269 °C.
For `C=C(C)[C@@H]1CC[C@]2(C(=O)N[C@@H]3CC[C@H](CN4CCN(CC)CC4)C3)CC[C@]3(C)[C@H](CC[C@@H]4[C@@]5(C)CC[C@H](OC(=O)CC(C)(C)C(=O)O)C(C)(C)[C@@H]5CC[C@]43C)[C@@H]12` [Example 36, 4-((1R,3aS,5aR,5bR,7aR,9S,11aR,11bR,13aR,13bR)-3a-((1R,3S)-3-((4-ethylpiperazin-1-yl)methyl)cyclopentylcarbamoyl)-5a,5b,8,8,11a-pentamethyl-1-(prop-1-en-2-yl)icosahydro-1H-cyclopenta[a]chrysen-9-yloxy)-2,2-dimethyl-4-oxobutanoic acid], the IC50 (HIV-1 strain NL4-3) was 5 nM, the “TI / Safety Index (CC50/IC50)” value (HIV-1 strain NL4-3) was 4000 and the IC50 (HIV-1 strain IIIB) was 4 nM. The “TI / Safety Index (CC50/IC50)” value (HIV-1 strain IIIB) was 5000, the CC50 (in vitro) was greater than 20000 nM and the IC50 (HIV-1 strain CNHN24) was 5 nM. The “TI / Safety Index (CC50/IC50)” value (HIV-1 strain CNHN24) was 4000.
`C=C(C)[C@@H]1CC[C@]2(C(=O)N[C@H]3C[C@@H](C(=O)N4CCCC4)C3(C)C)CC[C@]3(C)[C@H](CC[C@@H]4[C@@]5(C)CC[C@H](OC(=O)CC(C)(C)C(=O)O)C(C)(C)[C@@H]5CC[C@]43C)[C@@H]12` [Example 15, 4-((1R,3aS,5aR,5bR,7aR,9S,11aR,11bR,13aR,13bR)-3a-((1S,3R)-2,2-dimethyl-3-(pyrrolidine-1-carbonyl)cyclobutylcarbamoyl)-5a,5b,8,8,11a-pentamethyl-1-(prop-1-en-2-yl)icosahydro-1H-cyclopenta[a]chrysen-9-yloxy)-2,2-dimethyl-4-oxobutanoic acid] gave an inhibition at 0.1 µM (HIV-1 strain 92-HT599; HIV-1 92-HT599, p24, concentration 0.1 μM) of 86%, an inhibition at 1 µM (HIV-1 strain 92-HT599; HIV-1 92-HT599, p24, concentration 1 μM) of 98% and a melting point of 110 to 114 °C.
For `C=C(C)[C@@H]1CC[C@]2(C(=O)N[C@@H]3CC[C@H](CN4CCC(Cc5ccccc5)CC4)C3)CC[C@]3(C)[C@H](CC[C@@H]4[C@@]5(C)CC[C@H](OC(=O)CC(C)(C)CC(=O)O)C(C)(C)[C@@H]5CC[C@]43C)[C@@H]12` [Example 94, 5-((1R,3aS,5aR,5bR,7aR,9S,11aR,11bR,13aR,13bR)-3a-((1R,3S)-3-((4-benzylpiperidin-1-yl)methyl)cyclopentylcarbamoyl)-5a,5b,8,8,11a-pentamethyl-1-(prop-1-en-2-yl)icosahydro-1H-cyclopenta[a]chrysen-9-yloxy)-3,3-dimethyl-5-oxopentanoic acid], the IC50 (HIV-1 strain NL4-3) was 23 nM, the “TI / Safety Index (CC50/IC50)” value (HIV-1 strain NL4-3) was 173 and the IC50 (HIV-1 strain IIIB) was 19 nM. The “TI / Safety Index (CC50/IC50)” value (HIV-1 strain IIIB) was 210, the CC50 (in vitro) was 4000 nM and the IC50 (HIV-1 strain CNHN24) was 26 nM. For the same compound, the “TI / Safety Index (CC50/IC50)” value (HIV-1 strain CNHN24) was 153.
Compound `C=C(C)[C@@H]1CC[C@]2(C(=O)O)CC[C@]3(C)C(CC[C@@H]4[C@@]5(C)[C@@H](C(=O)O)[C@H](OC(=O)CC(C)(C)C(=O)O)C(C)(C)[C@@H]5CC[C@]43C)C12` (stereo partly drawn) [Example 6, (1R,2S,3aR,5aR,5bR,7aS,10R,12aR,12bR)-2-(3-carboxy-3-methylbutanoyloxy)-3,3,5a,5b,12b-pentamethyl-10-(prop-1-en-2-yl)icosahydrodicyclopenta[a,i]phenanthrene-1,7a-dicarboxylic acid] has a viability at 24 h, 0.1 µM [1] of 103%, a viability at 24 h, 1 µM [1] of 99% and a viability at 24 h, 10 µM [1] of 82.8%. The viability at 24 h, 100 µM [1] was 7.27%, the inhibition at 0.0001 µM (HIV-193IN 101) was 17.5% and the inhibition at 0.001 µM (HIV-193IN 101) was 15.2%. The inhibition at 0.1 µM (HIV-193IN 101) was 21.1%, the inhibition at 1 µM (HIV-193IN 101) was 32.1% and the inhibition at 100 µM (HIV-193IN 101) was 34.9%. For the same compound, the viability at 0.001 µM [2] was 86.9%, the viability at 0.1 µM [2] was 82.7% and the viability at 1 µM [2] was 88.6%. It also gave a viability at 100 µM [2] of 88.8% and a viability at 1 mM [2] of 23.1%.
